{
  "source": "patent US10787425B2",
  "about": "“Thiazolidinedione derivative and use thereof” (INDUSTRY-ACADEMIC COOPERATION FOUNDATION CHOSUN UNIVERSITY, priority 2016, dated 2020)",
  "key": {"A549 cells": {"tested_on": "A549 cells", "experiment": "Measurement of PGE2 concentration in A549 cell medium (ELISA)", "type": "cell-based, human", "conditions": "for Increment %: PGE2 concentration versus PBS control, 5 μM, 12 hours; for PGE2 concentration: inhibitor 5 μM, medium collected after 12 hours, ELISA", "experimental": "A549 cells were subcultured in RPMI 1640 medium (containing+8% fetal bovine serum (FBS) and antibiotic-antimycotic (AA)) for one week, and then, inoculated in a 6-well plate at 2.5×10^5 cells/mL (5×10^5 cells/well) and cultured for 24 hours in a 5% CO2 incubator at a temperature of 37° C. A549 cells are adenocarcinomic human alveolar basal epithelial cells which are derived from lung tissues. When cells were grown to about 80% confluence, a 15-PGDH inhibitor in 1×PBS buffer was injected at a concentration of 5 μM. To compare the results, the same amount of 1×PBS buffer was injected into a negative control, and, the treated cells were cultured in 5% CO2 incubator. After 12 hours, the medium was collected and the collected medium was assayed to measure PGE2 concentration by using an ELISA Kit (Abcam) according to the manufacturer's instructions. The concentration may be expressed as an exact value by plotting the calibration curve by using the absorbance value after diluting the standard in the medium by concentration."}, "15-PGDH": {"biological_target": "15-PGDH (Homo sapiens (Human), UniProt P15428)", "sequence (P15428 whole entry)": "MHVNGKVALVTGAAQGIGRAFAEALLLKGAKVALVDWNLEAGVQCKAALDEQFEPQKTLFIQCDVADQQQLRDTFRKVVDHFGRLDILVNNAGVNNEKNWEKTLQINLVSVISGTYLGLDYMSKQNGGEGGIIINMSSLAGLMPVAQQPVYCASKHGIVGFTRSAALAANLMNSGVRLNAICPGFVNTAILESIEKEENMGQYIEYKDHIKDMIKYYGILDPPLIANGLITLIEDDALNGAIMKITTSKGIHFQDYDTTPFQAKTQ", "experiment": "15-PGDH inhibitory activity (NADH at 340 nm)", "type": "biochemical", "conditions": "concentration inhibiting 50% of 15-PGDH activity; purified 15-PGDH, 21 μM PGE2, 0.25 mM NAD+", "experimental": "The 15-PGDH cDNA plasmid containing the BamHI of the pGEX-2T expression vector and EcoRI restriction enzyme sites was transfected into E. coli BL-21 LysS by using conventional methods used in the art. Then, the transfected cells were cultured in an LB medium (500 ml) containing 50 μg/ml of ampicillin at a temperature of 37° C. and at a rate of 220 rpm until the OD600 reached 0.6. Then, isopropyl beta-D-thiogalactoxide (1 mM) was added and the cells were further cultured at the temperature of 25° C. for 12 hours. The cells were then centrifuged at the gravity of 4,000 g for 30 minutes at a temperature of 4° C. to collect a cell pellet. The cell pellet was dissolved in 20 ml of cell lysis buffer (containing 1×PBS buffer (pH 7.4): 1 mM EDTA and 0.1 mM DTT) and sonicated at a temperature of 4° C. for 14×10 s. The digested cells were centrifuged at the gravity of 4,000 g for 20 minutes at a temperature of 4° C. The supernatant was then slowly loaded onto a glutathione-sepharose 4B column equilibrated at a temperature of 4° C. with cell lysis buffer [containing 1×PBS buffer (pH 7.4), 1 mM EDTA, and 0.1 mM DTT]. Washing was performed thereon by using a dissolution buffer until the OD280 reached 0.005 or less. Then, 15-PGDH was eluted from the glutathione-sepharose 4B column at room temperature for 5 minutes by using an elution buffer [containing 50 mM Tris-HCl (pH 8.0), 10 mM reduced glutathione, 1 mM EDTA, and 0.1 mM DTT). The concentration of the purified enzyme was measured, and the purification level thereof was confirmed by SDS-PAGE.\nThat is, the cells were treated with a solution including 50 mM Tris-HCl (pH 7.5), 0.1 mM DTT, 0.25 mM (NAD+), 10 μg of purified 15-PGDH enzyme, 21 μM PGE2. and various concentrations (0.0001 μM to 64 μM) of the derivative compound according to the present disclosure. In this case, the total volume of the solution was 2 ml. Then, the absorbance of the reaction mixture was recorded at the wavelength of 340 nm. To measure the activity of the derivative compounds according to the present disclosure, which is an inhibitor of 15-PGDH, the average value of NADH absorbance at 340 nm at various concentrations was obtained from a standard curve."}},
  "data": [
    {"smiles": "O=C1NC(=O)/C(=C/c2ccc(OC(=O)C3CCC3)c(Br)c2)S1", "note": "[Compound 17, (Z)-2-bromo-4-((2,4-dioxothiazolidin-5-ylidene)methyl)phenyl cyclobutanecarboxylate]", "values": [
      {"measurement": "Increment %", "setting": "A549 cells", "value": 56.34, "unit": "%"},
      {"measurement": "PGE2 concentration", "setting": "A549 cells", "value": 395.597, "unit": "pg/mL"},
      {"measurement": "IC50", "setting": "15-PGDH", "value": 106, "unit": "nM"}
    ]},
    {"smiles": "O=C1NC(=O)/C(=C/c2ccc(OC(=O)C3CCCC3)c(Br)c2)S1", "note": "[Compound 18, (Z)-2-bromo-4-((2,4-dioxothiazolidin-5-ylidene)methyl)phenyl cyclopentanecarboxylate]", "values": [
      {"measurement": "Increment %", "setting": "A549 cells", "value": "−21.7", "unit": "%"},
      {"measurement": "PGE2 concentration", "setting": "A549 cells", "value": 198.1274, "unit": "pg/mL"},
      {"measurement": "IC50", "setting": "15-PGDH", "value": 50, "unit": "nM"}
    ]},
    {"smiles": "O=C(CC1CCCC1)Oc1ccc(/C=C2\\SC(=O)NC2=O)cc1Br", "note": "[Compound 19, (Z)-2-bromo-4-((2,4-dioxothiazolidin-5-ylidene)methyl)phenyl 2-cyclopentylacetate]", "values": [
      {"measurement": "Increment %", "setting": "A549 cells", "value": "−8.11", "unit": "%"},
      {"measurement": "PGE2 concentration", "setting": "A549 cells", "value": 232.5151, "unit": "pg/mL"},
      {"measurement": "IC50", "setting": "15-PGDH", "value": 19.8, "unit": "nM"}
    ]},
    {"smiles": "O=C(CCC1CCCC1)Oc1ccc(/C=C2\\SC(=O)NC2=O)cc1Br", "note": "[Compound 20, (Z)-2-bromo-4-((2,4-dioxothiazolidin-5-ylidene)methyl)phenyl 3-cyclopentylpropanoate]", "values": [
      {"measurement": "Increment %", "setting": "A549 cells", "value": 227.32, "unit": "%"},
      {"measurement": "PGE2 concentration", "setting": "A549 cells", "value": 828.2384, "unit": "pg/mL"},
      {"measurement": "IC50", "setting": "15-PGDH", "value": 15.8, "unit": "nM"}
    ]},
    {"smiles": "O=C1NC(=O)/C(=C/c2ccc(OC(=O)C3CCCCC3)c(Br)c2)S1", "note": "[Compound 21, (Z)-2-bromo-4-((2,4-dioxothiazolidin-5-ylidene)methyl)phenyl cyclohexanecarboxylate]", "values": [
      {"measurement": "Increment %", "setting": "A549 cells", "value": 62.47, "unit": "%"},
      {"measurement": "PGE2 concentration", "setting": "A549 cells", "value": 411.1081, "unit": "pg/mL"},
      {"measurement": "IC50", "setting": "15-PGDH", "value": 37.6, "unit": "nM"}
    ]},
    {"smiles": "O=C(CC1CCCCC1)Oc1ccc(/C=C2\\SC(=O)NC2=O)cc1Br", "note": "[Compound 22, (Z)-2-bromo-4-((2,4-dioxothiazolidin-5-ylidene)methyl)phenyl 2-cyclohexylacetate]", "values": [
      {"measurement": "Increment %", "setting": "A549 cells", "value": 89.77, "unit": "%"},
      {"measurement": "PGE2 concentration", "setting": "A549 cells", "value": 480.187, "unit": "pg/mL"},
      {"measurement": "IC50", "setting": "15-PGDH", "value": 20.6, "unit": "nM"}
    ]},
    {"smiles": "O=C(CCCC1CCCCC1)Oc1ccc(/C=C2\\SC(=O)NC2=O)cc1Br", "note": "[Compound 24, (Z)-2-bromo-4-((2,4-dioxothiazolidin-5-ylidene)methyl)phenyl 4-cyclohexylbutanoate]", "values": [
      {"measurement": "Increment %", "setting": "A549 cells", "value": 299.32, "unit": "%"},
      {"measurement": "PGE2 concentration", "setting": "A549 cells", "value": 1010.425, "unit": "pg/mL"},
      {"measurement": "IC50", "setting": "15-PGDH", "value": 15.4, "unit": "nM"}
    ]},
    {"smiles": "O=C(CCCCC1CCCCC1)Oc1ccc(/C=C2\\SC(=O)NC2=O)cc1Br", "note": "[Compound 25, (Z)-2-bromo-4-((2,4-dioxothiazolidin-5-ylidene)methyl)phenyl 5-cyclohexylpentanoate]", "values": [
      {"measurement": "Increment %", "setting": "A549 cells", "value": 5.34, "unit": "%"},
      {"measurement": "PGE2 concentration", "setting": "A549 cells", "value": 266.5484, "unit": "pg/mL"},
      {"measurement": "IC50", "setting": "15-PGDH", "value": 26.3, "unit": "nM"}
    ]},
    {"smiles": "O=C(O)c1ccccc1.O=C1NC(=O)/C(=C/c2ccc(OC(=O)c3ccccc3)c(Br)c2)S1", "note": "[Compound 26, (Z)-2-bromo-4-((2,4-dioxothiazolidin-5-ylidene)methyl)phenylbenzoate]", "values": [
      {"measurement": "Increment %", "setting": "A549 cells", "value": "−11.12", "unit": "%"},
      {"measurement": "PGE2 concentration", "setting": "A549 cells", "value": 175.2752, "unit": "pg/mL"},
      {"measurement": "IC50", "setting": "15-PGDH", "value": 25.4, "unit": "nM"}
    ]},
    {"smiles": "O=C(Cc1ccccc1)Oc1ccc(/C=C2\\SC(=O)NC2=O)cc1Br", "note": "[Compound 27, (Z)-2-bromo-4-((2,4-dioxothiazolidin-5-ylidene)methyl)phenyl 2-phenylacetate]", "values": [
      {"measurement": "Increment %", "setting": "A549 cells", "value": 99.65, "unit": "%"},
      {"measurement": "PGE2 concentration", "setting": "A549 cells", "value": 393.7184, "unit": "pg/mL"},
      {"measurement": "IC50", "setting": "15-PGDH", "value": 40.6, "unit": "nM"}
    ]},
    {"smiles": "O=C(CCc1ccccc1)Oc1ccc(/C=C2\\SC(=O)NC2=O)cc1Br", "note": "[Compound 28, (Z)-2-bromo-4-((2,4-dioxothiazolidin-5-ylidene)methyl)phenyl 3-phenylpropanoate]", "values": [
      {"measurement": "Increment %", "setting": "A549 cells", "value": 190.32, "unit": "%"},
      {"measurement": "PGE2 concentration", "setting": "A549 cells", "value": 572.5235, "unit": "pg/mL"},
      {"measurement": "IC50", "setting": "15-PGDH", "value": 28.4, "unit": "nM"}
    ]},
    {"smiles": "O=C(CCCc1ccccc1)Oc1ccc(/C=C2\\SC(=O)NC2=O)cc1Br", "note": "[Compound 29, (Z)-2-bromo-4-((2,4-dioxothiazolidin-5-ylidene)methyl)phenyl 4-phenylbutanoate]", "values": [
      {"measurement": "Increment %", "setting": "A549 cells", "value": 367.81, "unit": "%"},
      {"measurement": "PGE2 concentration", "setting": "A549 cells", "value": 922.5414, "unit": "pg/mL"},
      {"measurement": "IC50", "setting": "15-PGDH", "value": 14.5, "unit": "nM"}
    ]},
    {"smiles": "O=C(CCCCc1ccccc1)Oc1ccc(/C=C2\\SC(=O)NC2=O)cc1Br", "note": "[Compound 30, (Z)-2-bromo-4-((2,4-dioxothiazolidin-5-ylidene)methyl)phenyl 5-phenylpentanoate]", "values": [
      {"measurement": "Increment %", "setting": "A549 cells", "value": 42.35, "unit": "%"},
      {"measurement": "PGE2 concentration", "setting": "A549 cells", "value": 280.7203, "unit": "pg/mL"},
      {"measurement": "IC50", "setting": "15-PGDH", "value": 23.5, "unit": "nM"}
    ]}
  ]
}
